Source: ChEMBL document CHEMBL5233266, “β-Carboline as a Privileged Scaffold for Multitarget Strategies in Alzheimer's Disease Therapy” (J Med Chem, 2021)
pIC50, pKi: −log10 of the molar value. Where “and” joins values, the source holds several entries; their conditions need not be identical. Equal values may be shown once.

Legend:
Acetylcholinesterase [1] = target: T1, Acetylcholinesterase (Homo sapiens, UniProt P22303); test: Inhibition of AChE (unknown origin) using acetylthiocholine iodide as substrate incubated for 20 mins followed by substrate addition by Ellman's method
T1 sequence (P22303 whole entry): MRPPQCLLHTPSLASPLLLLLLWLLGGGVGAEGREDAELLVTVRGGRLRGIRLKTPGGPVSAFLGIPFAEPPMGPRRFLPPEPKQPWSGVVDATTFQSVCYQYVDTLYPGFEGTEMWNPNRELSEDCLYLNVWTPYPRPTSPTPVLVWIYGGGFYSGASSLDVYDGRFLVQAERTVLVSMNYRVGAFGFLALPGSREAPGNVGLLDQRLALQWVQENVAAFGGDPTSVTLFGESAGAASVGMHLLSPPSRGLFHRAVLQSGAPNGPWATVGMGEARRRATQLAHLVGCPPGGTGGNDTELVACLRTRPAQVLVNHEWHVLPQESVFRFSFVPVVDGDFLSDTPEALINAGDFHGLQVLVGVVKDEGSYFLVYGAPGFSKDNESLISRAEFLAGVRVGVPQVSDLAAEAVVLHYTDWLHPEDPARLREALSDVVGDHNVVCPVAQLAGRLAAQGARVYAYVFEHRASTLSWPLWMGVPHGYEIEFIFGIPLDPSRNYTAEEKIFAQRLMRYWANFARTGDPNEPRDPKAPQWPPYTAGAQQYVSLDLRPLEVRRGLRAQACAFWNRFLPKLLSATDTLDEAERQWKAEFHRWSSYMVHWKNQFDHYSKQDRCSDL

[2] = target: T2, Gamma-aminobutyric acid receptor subunit alpha-2 (Homo sapiens, UniProt P47869); test: Binding affinity to human recombinant GABAA alpha2 receptor assessed as inhibition constant incubated for 1 hrs by liquid scintillation counting analysis
T2 sequence (P47869 whole entry): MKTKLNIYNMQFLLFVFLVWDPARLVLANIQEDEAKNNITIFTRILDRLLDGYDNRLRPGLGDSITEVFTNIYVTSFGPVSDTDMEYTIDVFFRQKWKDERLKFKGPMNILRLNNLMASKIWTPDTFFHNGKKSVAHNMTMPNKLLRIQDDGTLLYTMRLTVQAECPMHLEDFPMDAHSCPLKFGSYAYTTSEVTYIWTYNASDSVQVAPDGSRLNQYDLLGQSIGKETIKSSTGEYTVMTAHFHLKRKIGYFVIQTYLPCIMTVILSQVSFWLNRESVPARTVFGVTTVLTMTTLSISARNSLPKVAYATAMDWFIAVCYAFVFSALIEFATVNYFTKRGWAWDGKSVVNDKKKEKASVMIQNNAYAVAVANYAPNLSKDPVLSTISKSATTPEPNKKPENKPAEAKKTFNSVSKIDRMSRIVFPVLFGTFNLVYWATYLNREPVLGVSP

[3] = target: T3, Gamma-aminobutyric acid receptor subunit alpha-3 (Homo sapiens, UniProt P34903); test: Binding affinity to human recombinant GABAA alpha3 receptor assessed as inhibition constant incubated for 1 hrs by liquid scintillation counting analysis
T3 sequence (P34903 whole entry): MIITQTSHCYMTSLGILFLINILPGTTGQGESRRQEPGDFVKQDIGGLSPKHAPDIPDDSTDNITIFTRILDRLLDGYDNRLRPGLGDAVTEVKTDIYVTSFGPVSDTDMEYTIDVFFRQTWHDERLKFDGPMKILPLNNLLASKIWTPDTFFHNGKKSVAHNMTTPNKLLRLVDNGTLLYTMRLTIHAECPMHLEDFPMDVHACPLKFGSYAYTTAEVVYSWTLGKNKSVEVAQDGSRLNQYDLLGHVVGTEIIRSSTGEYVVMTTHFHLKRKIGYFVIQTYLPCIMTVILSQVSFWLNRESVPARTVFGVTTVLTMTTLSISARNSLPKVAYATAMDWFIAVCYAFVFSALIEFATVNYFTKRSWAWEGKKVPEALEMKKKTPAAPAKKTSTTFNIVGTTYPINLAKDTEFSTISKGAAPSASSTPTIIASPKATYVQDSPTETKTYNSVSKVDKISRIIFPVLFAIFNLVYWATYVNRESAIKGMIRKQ

[4] = target: GABA-A receptor; anion channel; test: Inhibition of GABAA receptor (unknown origin); assay type: protein-complex assay, Homo sapiens
[5] = target: Gamma-aminobutyric acid receptor subunit alpha-6 (Homo sapiens, UniProt Q16445); test: Binding affinity to human recombinant GABAA alpha6 receptor assessed as inhibition constant incubated for 1 hrs by liquid scintillation counting analysis
Chain of Gamma-aminobutyric acid receptor subunit alpha-6 (Q16445 whole entry): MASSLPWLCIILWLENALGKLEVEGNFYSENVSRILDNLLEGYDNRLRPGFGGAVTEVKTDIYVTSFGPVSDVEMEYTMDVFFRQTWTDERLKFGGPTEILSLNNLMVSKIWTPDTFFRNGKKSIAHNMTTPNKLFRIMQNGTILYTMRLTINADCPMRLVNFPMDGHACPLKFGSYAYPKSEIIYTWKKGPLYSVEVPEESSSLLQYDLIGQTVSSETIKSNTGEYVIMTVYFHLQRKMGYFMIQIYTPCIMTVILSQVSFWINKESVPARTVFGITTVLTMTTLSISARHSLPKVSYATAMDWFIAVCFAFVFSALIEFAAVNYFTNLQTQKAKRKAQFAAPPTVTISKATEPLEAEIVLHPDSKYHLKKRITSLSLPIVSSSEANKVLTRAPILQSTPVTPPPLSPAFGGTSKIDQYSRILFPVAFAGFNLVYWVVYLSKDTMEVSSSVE

[6] = target: T4, Gamma-aminobutyric acid receptor subunit alpha-1 (Homo sapiens, UniProt P14867); test: Binding affinity to human recombinant GABAA alpha1 receptor assessed as inhibition constant incubated for 1 hrs by liquid scintillation counting analysis
T4 sequence (P14867 whole entry): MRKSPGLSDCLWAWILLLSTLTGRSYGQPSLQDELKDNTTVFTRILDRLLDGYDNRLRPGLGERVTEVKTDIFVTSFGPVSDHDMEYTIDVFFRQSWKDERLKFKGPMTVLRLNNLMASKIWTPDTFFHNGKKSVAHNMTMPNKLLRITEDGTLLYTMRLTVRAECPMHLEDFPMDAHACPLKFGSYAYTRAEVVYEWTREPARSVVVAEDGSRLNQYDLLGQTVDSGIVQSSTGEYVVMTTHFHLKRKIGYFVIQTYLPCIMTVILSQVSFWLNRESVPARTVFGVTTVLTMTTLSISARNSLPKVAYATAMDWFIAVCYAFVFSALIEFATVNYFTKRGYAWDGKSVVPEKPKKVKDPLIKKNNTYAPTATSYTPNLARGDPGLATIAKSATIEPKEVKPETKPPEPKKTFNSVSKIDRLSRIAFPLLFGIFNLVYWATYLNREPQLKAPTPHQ

[7] = target: T5, Gamma-aminobutyric acid receptor subunit alpha-5 (Homo sapiens, UniProt P31644); test: Binding affinity to human recombinant GABAA alpha5 receptor assessed as inhibition constant incubated for 1 hrs by liquid scintillation counting analysis
T5 sequence (P31644 whole entry): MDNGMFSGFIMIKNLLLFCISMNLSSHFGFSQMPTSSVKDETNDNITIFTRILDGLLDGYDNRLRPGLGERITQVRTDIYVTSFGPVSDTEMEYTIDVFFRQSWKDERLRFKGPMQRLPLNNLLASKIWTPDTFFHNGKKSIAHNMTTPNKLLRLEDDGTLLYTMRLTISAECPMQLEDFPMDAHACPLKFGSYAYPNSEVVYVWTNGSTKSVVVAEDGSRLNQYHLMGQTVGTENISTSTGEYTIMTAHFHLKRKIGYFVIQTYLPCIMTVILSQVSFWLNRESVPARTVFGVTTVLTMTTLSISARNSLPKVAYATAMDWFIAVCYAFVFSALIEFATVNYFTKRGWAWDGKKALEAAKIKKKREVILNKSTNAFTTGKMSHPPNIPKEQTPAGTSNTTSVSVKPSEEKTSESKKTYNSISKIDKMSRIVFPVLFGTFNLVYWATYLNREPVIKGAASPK

Cholinesterase [8] = target: T6, Cholinesterase (Homo sapiens, UniProt P06276); test: Inhibition of BuChE (unknown origin) using acetylthiocholine iodide as substrate incubated for 20 mins followed by substrate addition by Ellman's method
T6 sequence (P06276 whole entry): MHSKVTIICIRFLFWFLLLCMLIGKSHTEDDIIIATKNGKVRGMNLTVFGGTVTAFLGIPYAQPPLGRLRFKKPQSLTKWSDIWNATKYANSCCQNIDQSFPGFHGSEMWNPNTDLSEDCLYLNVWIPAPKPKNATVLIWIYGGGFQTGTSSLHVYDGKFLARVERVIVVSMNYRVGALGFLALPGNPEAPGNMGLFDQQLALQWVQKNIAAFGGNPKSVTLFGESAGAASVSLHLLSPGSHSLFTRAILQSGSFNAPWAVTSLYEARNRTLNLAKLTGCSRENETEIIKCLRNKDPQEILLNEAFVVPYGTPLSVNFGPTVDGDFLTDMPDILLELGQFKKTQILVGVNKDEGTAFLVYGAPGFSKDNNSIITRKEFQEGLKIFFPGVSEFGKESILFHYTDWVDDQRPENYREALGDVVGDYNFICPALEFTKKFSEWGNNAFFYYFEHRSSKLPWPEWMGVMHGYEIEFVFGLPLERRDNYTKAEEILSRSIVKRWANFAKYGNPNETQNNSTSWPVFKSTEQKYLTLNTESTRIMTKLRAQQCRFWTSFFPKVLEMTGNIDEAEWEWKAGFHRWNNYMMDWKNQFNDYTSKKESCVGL

[9] = target: T7, Amine oxidase [flavin-containing] A (Homo sapiens, UniProt P21397); test: Inhibition of MAO-A (unknown origin)
T7 sequence (P21397 whole entry): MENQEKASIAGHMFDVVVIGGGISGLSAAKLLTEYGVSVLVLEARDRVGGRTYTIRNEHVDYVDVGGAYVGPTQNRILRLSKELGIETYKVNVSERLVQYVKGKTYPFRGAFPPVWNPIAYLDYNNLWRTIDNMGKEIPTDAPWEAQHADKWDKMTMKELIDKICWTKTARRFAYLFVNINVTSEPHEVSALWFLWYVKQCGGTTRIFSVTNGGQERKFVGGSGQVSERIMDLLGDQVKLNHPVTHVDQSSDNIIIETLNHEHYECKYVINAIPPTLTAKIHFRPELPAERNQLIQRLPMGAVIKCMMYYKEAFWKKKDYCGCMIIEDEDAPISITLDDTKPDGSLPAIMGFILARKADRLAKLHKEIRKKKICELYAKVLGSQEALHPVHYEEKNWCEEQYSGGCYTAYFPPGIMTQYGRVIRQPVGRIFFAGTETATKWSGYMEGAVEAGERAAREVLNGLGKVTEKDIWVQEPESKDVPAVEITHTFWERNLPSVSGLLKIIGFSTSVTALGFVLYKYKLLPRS

Acetylcholinesterase [10] = target: T1, Acetylcholinesterase; test: Inhibition of AChE (unknown origin) incubated for 40 mins by Ellman's method
Cholinesterase [11] = target: T6, Cholinesterase; test: Inhibition of BuChE (unknown origin)
[12] = target: 5-hydroxytryptamine receptor 2B (Homo sapiens, UniProt P41595); test: Binding affinity to 5-HT2B (unknown origin) assessed as equilibrium binding constant
Chain of 5-hydroxytryptamine receptor 2B (Homo sapiens, UniProt P41595) (P41595 whole entry): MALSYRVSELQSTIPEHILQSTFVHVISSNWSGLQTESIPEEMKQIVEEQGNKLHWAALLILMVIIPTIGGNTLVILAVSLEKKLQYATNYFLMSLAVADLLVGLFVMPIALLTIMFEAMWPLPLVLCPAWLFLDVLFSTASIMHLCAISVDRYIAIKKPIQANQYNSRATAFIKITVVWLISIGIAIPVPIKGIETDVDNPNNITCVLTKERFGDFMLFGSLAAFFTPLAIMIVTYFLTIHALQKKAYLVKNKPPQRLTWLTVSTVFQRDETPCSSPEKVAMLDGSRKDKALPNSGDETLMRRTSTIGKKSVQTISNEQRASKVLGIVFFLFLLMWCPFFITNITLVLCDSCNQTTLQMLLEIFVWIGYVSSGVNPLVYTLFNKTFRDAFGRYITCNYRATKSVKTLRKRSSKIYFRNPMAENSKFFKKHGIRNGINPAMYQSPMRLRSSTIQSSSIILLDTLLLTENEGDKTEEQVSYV

[13] = target: 5-hydroxytryptamine receptor 2B (Rattus norvegicus, UniProt P30994); test: Displacement of [3H]-ketanserin from rat 5-HT2B expressed in mouse NIH/3T3 cells assessed as inhibition constant by Cheng-Prusoff equation analysis; assay type: cell-based
Chain of 5-hydroxytryptamine receptor 2B (Rattus norvegicus, UniProt P30994) (P30994 whole entry): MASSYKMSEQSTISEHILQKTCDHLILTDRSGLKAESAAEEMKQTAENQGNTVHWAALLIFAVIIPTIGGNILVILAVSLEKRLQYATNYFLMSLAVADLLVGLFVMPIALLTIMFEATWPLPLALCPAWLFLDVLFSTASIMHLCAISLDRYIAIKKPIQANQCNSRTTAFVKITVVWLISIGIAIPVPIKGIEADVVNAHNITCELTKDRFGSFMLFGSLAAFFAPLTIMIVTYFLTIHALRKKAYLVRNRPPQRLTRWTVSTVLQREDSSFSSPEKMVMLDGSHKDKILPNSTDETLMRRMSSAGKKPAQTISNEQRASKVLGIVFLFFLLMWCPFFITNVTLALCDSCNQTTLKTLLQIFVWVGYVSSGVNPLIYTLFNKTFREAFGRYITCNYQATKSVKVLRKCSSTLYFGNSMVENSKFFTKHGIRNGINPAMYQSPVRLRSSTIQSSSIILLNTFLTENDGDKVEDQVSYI

Acetylcholinesterase [14] = target: T1, Acetylcholinesterase; test: Inhibition of AChE (unknown origin)

Structure (SMILES): C=C[C@H]1[C@@H](/C(=C/O)C(=O)OC)C[C@H]2c3[nH]c4ccccc4c3CCN2[C@H]1O[C@@H]1O[C@H](CO)[C@@H](O)[C@H](O)[C@H]1O
- pIC50 (Acetylcholinesterase [1]): 5.72

Structure (SMILES): Clc1ccc2c(c1)[nH]c1c2ncc2[nH]c3ccccc3c21
- pKi [2]: 7.92
- pKi [3]: 7.62
- pIC50 [4]: 8.40
- pKi [5]: < 5.00
- pKi [6]: 8.40
- pKi [7]: 6.68

Structure (SMILES): COCc1c(-c2cc(C)on2)ncc2[nH]c3ccc4oc(C(C)C)nc4c3c12
- pIC50 [4]: 9.05

Structure (SMILES): CCCCCCCNC(=O)Oc1ccc2c(c1)CN1CCc3c([nH]c4ccccc34)C1N2C (centres undefined)
- pIC50 (Cholinesterase [8]): 7.11
- pIC50 (Acetylcholinesterase [1]): < 5.00

Structure (SMILES): Cc1nccc2c1[nH]c1cc(OCC(C)C)ccc12
- pIC50 [9]: 8.30

Structure (SMILES): Cn1c2ccccc2c2cc[n+](-c3ccc(Br)cc3)cc21
- pIC50 (Acetylcholinesterase [10]): 6.62
- pIC50 (Cholinesterase [11]): 4.49 and 3.94

Structure (SMILES): COCc1c(C(=O)OC(C)C)ncc2[nH]c3ccc4oc(C(C)C)cc4c3c12
- pIC50 [4]: 9.10

Structure (SMILES): Cn1c2c(c3ccccc31)CC[N+](c1ccc(Br)cc1Br)=C2
- pIC50 (Acetylcholinesterase [10]): < 5.00

Structure (SMILES): O=C(CCN1CCCC1)Nc1ccc2c(c1)CN1CCc3c([nH]c4ccccc34)C1=N2
- pIC50 (Cholinesterase [8]): 6.08
- pIC50 (Acetylcholinesterase [1]): 7.54

Structure (SMILES): CCc1cccc2[nH]c3c(c12)CCNC3Cc1ccc(OC)c(OC)c1 (centres undefined)
- Kb [12]: < 0.0003 µM
- pKi [13]: 10.00

Structure (SMILES): C=C[C@H]1C[N+]2=C(C[C@@H]1/C(=C\OC)C(=O)OC)c1[nH]c3cccc(OC)c3c1CC2
- pIC50 (Acetylcholinesterase [1]): 5.39

Structure (SMILES): O=C(CN1CCCCC1)Nc1ccc2nc3c4[nH]c5ccccc5c4ccn3c(=O)c2c1
- pIC50 (Cholinesterase [8]): 5.27
- pIC50 (Acetylcholinesterase [1]): 8.00

Structure (SMILES): COC(=O)C1=CO[C@@H](C)[C@H]2C[n+]3ccc4c([nH]c5ccccc54)c3C[C@H]12
- pIC50 (Acetylcholinesterase [1]): 6.11

Structure (SMILES): COc1ccc(CC2NCCc3c2[nH]c2cccc(SC)c32)cc1OC (centres undefined)
- Kb [12]: < 0.0003 µM
- pKi [13]: 10.00

Structure (SMILES): Cn1c2c(c3ccccc31)CC[N+](c1ccc(I)cc1)=C2
- pIC50 (Acetylcholinesterase [10]): 5.82

Structure (SMILES): c1ccc(COc2ccc3c(c2)[nH]c2c3ncc3[nH]c4ccccc4c32)cc1
- pIC50 [4]: < 5.40

Structure (SMILES): COCc1c(C(=O)OC(C)C)ncc2[nH]c3ccc4nc5c(nc4c3c12)CCCC5
- pIC50 [4]: 9.10

Structure (SMILES): Cc1ccc(-[n+]2ccc3c4ccccc4n(C)c3c2)cc1
- pIC50 (Acetylcholinesterase [14]): 6.54 and 6.52
- pIC50 (Acetylcholinesterase [10]): 6.62
- pIC50 (Cholinesterase [11]): 4.49 and 3.94

Structure (SMILES): Cc1cc2cc3n(c(=O)c2cn1)CCc1c-3[nH]c2ccccc12
- pIC50 (Cholinesterase [8]): 6.00
- pIC50 (Acetylcholinesterase [1]): 4.66

Structure (SMILES): COc1ccc(CC2NCCc3c2[nH]c2cccc(I)c32)cc1OC (centres undefined)
- Kb [12]: < 0.0003 µM
- pKi [13]: 10.00

Structure (SMILES): COc1ccc(CC2NCCc3c2[nH]c2c(F)cc(F)cc32)cc1OC (centres undefined)
- Kb [12]: < 0.0003 µM
- pKi [13]: 9.70

Structure (SMILES): O=[N+]([O-])c1ccc2[nH]c3cnc4c5ccccc5[nH]c4c3c2c1
- pIC50 [4]: 8.40

Structure (SMILES): COc1ccc2c(c1)[nH]c1c2ncc2[nH]c3ccccc3c21
- pKi [2]: 7.92
- pKi [3]: 7.96
- pIC50 [4]: 8.40
- pKi [5]: < 5.00
- pKi [6]: 8.52
- pKi [7]: 6.64
